{"source": "patent US7704943B2", "about": "“Transglutaminase for inhibiting angiogenesis” (Aston University, priority 2000, dated 2010)", "key": {"ECV304 cells": {"system": "ECV304 cells", "test": "in vitro angiogenesis/tubulogenesis model, ECV304 cells co-cultured with C378 fibroblasts", "format": "cell-based, human", "description": "An in vitro system of angiogenesis/tubulogenesis was developed to evaluate the efficacy of TGase administration on angiogenesis. […] In the model cell system described below, ECV304 cells were co-cultured with the primary human dermal fibroblast cell line C378 (isolated from human foreskin), which provides the appropriate biochemical information to stimulate the differentiation of ECV304 to form capillary-like structures.\nECV304 cell lines S3 (a neomycin resistant transfected control cell line phenotypically similar to wild type cells) and B4 (a tTGase antisense transfected cell line [Jones, R. A., et al., 1997, J. Cell Sci. 110, 2461-2472]) and C378 were routinely cultured in Dulbecco's Modified Eagles Media (DMEM) supplemented with 2 mM glutamine and 10% (v/v) foetal calf serum (FCS). Cells were harvested by exposure to 0.25% (w/v) bovine trypsin in phosphate buffered saline (PBS) pH 7.4, and collected cells were washed in normal culture media, counted and seeded into the appropriate tissue culture vessel. Standard angiogenesis experiments were performed in 12-well cell culture plates, and 2×10^4 ECV304 cells and 2×10^4 C378 cells were seeded into 1 ml of normal growth media. For immunochemical staining experiment, 2×10^3 cells of each cell type were seeded into […] of growth medium in 8-well glass chamber slides. Co-cultures were incubated at 37° C. in a humidified atmosphere containing 5% (V/V) CO2, and tubules were allowed to develop spontaneously over a 14-day period, with regular changes of growth media every 72 hours.\nFor cultures treated with purified tTGase, a dose response with 1, 10 and 50 μg […] liver transglutaminase (gplTGase) was performed with two separate dosing regimes. gplTGase was activated by pre-incubation with 10 mM DTT on ice for one hour prior to its addition to cultures. The highest amount of DTT present in the cultures was 0.5 mm for the 50 μg gplTGase treatment, and control cultures were treated with DTT accordingly. In some experiments, cultures were treated with two administrations of exogenous enzyme on day 1 and day 4 of the experiment. Further studies extended the dose regime to include five gplTGase treatments, on days 1, 4, 7, 10 and 13.\nNon-specific protein binding was blocked by incubating fixed cells with 300 μl of 3% (w/v) bovine serum albumin (BSA) overnight at 4° C. Blocked plates were then incubated with the primary antisera (see table 5), diluted in the above buffer, for 2 hours at 37° C. with gentle shaking. Next, plates were washed three times and incubated with the appropriate species-specific secondary antibody (see table 5) conjugated to Horseradish peroxidase (HRP) for 2 hours at 37° C. with gentle shaking. […]"}, "rat dermal wound": {"system": "rat dermal wound", "conditions": "addition of exogenous enzyme, rat dermal wound healing; cited from earlier work"}}}
{"molecule": "Cc1ccc(C(=O)Nc2ccc(S(=O)(=O)O)c3cc(S(=O)(=O)O)cc(S(=O)(=O)O)c23)cc1NC(=O)c1cccc(NC(=O)Nc2cccc(C(=O)Nc3cc(C(=O)Nc4ccc(S(=O)(=O)O)c5cc(S(=O)(=O)O)cc(S(=O)(=O)O)c45)ccc3C)c2)c1", "note": "[suramin]", "values": [{"measurement": "microtubule formation (collagen type I, UEA-1 and tTGase staining)", "setting": "ECV304 cells; 10 μM, compared to untreated cells", "result": "significantly reduced"}, {"measurement": "microtubule formation", "setting": "ECV304 cells; 100 μM", "result": "completely eradicated"}, {"measurement": "microtubule formation", "setting": "ECV304 cells; 200 μM", "result": "completely eradicated"}, {"measurement": "angiogenesis (FIG. 4, tubules stained for collagen type I, UEA-1, tTGase)", "setting": "ECV304 cells; standard angiogenesis inhibitor, positive control", "result": "inhibition of angiogenesis"}]}
{"molecule": "recombinant tTGase: exogenous recombinant tissue transglutaminase used in the study of Haroon et al 1999 (protein, UniProt P21980 2-687, looked up) Protein-glutamine …: AEELVLERCDLELETNGRDHHTADLCREKLVVRRGQPFWLTLHFEGRNYEASVDSLTFSVVTGPAPSQEAGTKARFPLRDAVEEGDWTATVVDQQDCTLSLQLTTPANAPIGLYRLSLEASTGYQGSSFVLGHFILLFNAWCPADAVYLDSEEERQEYVLTQQGFIYQGSAKFIKNIPWNFGQFEDGILDICLILLDVNPKFLKNAGRDCSRRSSPVYVGRVVSGMVNCNDDQGVLLGRWDNNYGDGVSPMSWIGSVDILRRWKNHGCQRVKYGQCWVFAAVACTVLRCLGIPTRVVTNYNSAHDQNSNLLIEYFRNEFGEIQGDKSEMIWNFHCWVESWMTRPDLQPGYEGWQALDPTPQEKSEGTYCCGPVPVRAIKEGDLSTKYDAPFVFAEVNADVVDWIQQDDGSVHKSINRSLIVGLKISTKSVGRDEREDITHTYKYPEGSSEEREAFTRANHLNKLAEKEETGMAMRIRVGQSMNMGSDFDVFAHITNNTAEEYVCRLLLCARTVSYNGILGPECGTKYLLNLNLEPFSEKSVPLCILYEKYRDCLTESNLIKVRALLVEPVINSYLLAERDLYLENPEIKIRILGEPKQKRKLVAEVSLQNPLPVALEGCTFTVEGAGLTEEQKTVEIPDPVEAGEEVKVRMDLLPLHMGLHKLVVNFESDKLKAVKGFRNVIIGPA", "values": [{"measurement": "vessel length density", "setting": "rat dermal wound", "result": "increase in vessel length density"}]}
